Laboratory results from article PMC8707861 (Tomography, 2021).
Like-named read-outs stand apart in the source and are kept apart here.

What was measured:
[1] = n-octanol/PBS pH 7.40, triplicate
Protocol: The lipophilicity of the radioconjugates was characterised by the determination of the logarithm of distribution coefficient, logD, in the n-octanol/PBS (pH 7.40) system, which mimics the physiological conditions (Product Properties Test Guidelines OPPTS 830.7550, 1996). The 1 mL PBS solution of a given radioconjugate previously isolated from reaction mixture was introduced to a test tube containing 1 mL of n-octanol and vortexed for 1 min. After that, the test tube was centrifuged for 5 min at 5800 rpm to ensure complete separation of the layers. The activity of each layer was measured, using a well-type NaI(Tl) detector. […] The logD measurements of all radioconjugates were performed in triplicate.

[2] = human serum, 37 °C
Protocol: In the case of stability studies in human serum (HS), the solution of isolated radioconjugate in PBS (0.1 mL) was added to 0.9 mL of the human serum and incubated at 37 °C. After time periods up to 4 h, 0.2 mL of the incubated serum mixture were withdrawn, mixed in an Eppendorf tube with 0.5 mL ethanol and vigorously shaken to precipitate proteins. After centrifuging (14,000 rpm for 5 min) the γ-radiation of both the supernatant and precipitate was measured using the well-type NaI(Tl) detector. To check whether the radioconjugate had not converted into other water-soluble radioactive species, aliquots of the supernatant were analysed by HPLC.

S. aureus ATCC 25,923 = assay: In vitro binding of radioconjugate to bacteria; format: cell-based; details: Staphylococcus aureus, 37 °C
Protocol: (§1) Bacteria were cultured on Columbia Agar supplemented with 5% sheep blood (Graso Biotech, Starogard Gdański, Poland) at 37 °C in an aerobic atmosphere for 24 h. After incubation, a bacterial suspension with the turbidity 3 according to the McFarland standards (cell density approximately 9 × 10^8 CFU/mL) was prepared in PBS. […] The mixtures of bacteria and the radioconjugate were incubated in separated tubes for different time intervals at 37 °C without shaking. […] The supernatant was removed to a new tube, and the bacterial pellet was resuspended in 1 mL of PBS, then the sample was again centrifuged at 7000 rpm for 5 min. After second centrifugation, the supernatant was removed to a new tube and the bacterial pellet was again resuspended in 1 mL of PBS. The radioactivity measurement was performed for all three fractions, two supernatants, and a final bacterial pellet suspension. Experiments for each incubation time were triplicate.

[3] = system: P. aeruginosa ATCC 27,853; assay: In vitro binding of radioconjugate to bacteria; format: cell-based; details: Pseudomonas aeruginosa, 37 °C
Protocol: as §1

[4] = Paper electrophoresis analysis (charge of the molecule); format: physicochemical; details: 0.01 M phosphate buffer pH 7.40, 200 V, 45 min
Protocol: Paper electrophoresis experiments were achieved on 20 × 1 cm chromatographic paper strips, Paper Chromedia GF 83 (Whatman), in the phosphate buffer (0.01 M, pH 7.40), using the midi horizontal electrophoresis unit (Sigma-Aldrich) device. For both radioconjugates, the experiments were carried out at 200 V (10 V cm^−1) for 45 min and then the distribution of radioactivity on the strips was determined using a Storage Phosphor System Cyclone Plus (Perkin-Elmer Life and Analytical Sciences, Downers Grove, IL, USA).

[5] = Stability by incubation in 10 mM cysteine solution (HPLC); format: physicochemical
Protocol: (§2) After different time intervals the content of the solutions was tested by HPLC method.

[6] = Stability by incubation in 10 mM histidine solution (HPLC); format: physicochemical
Protocol: as §2

[7] = period of four half-lives of the radionuclide

logD [1]: −3.1 ± 0.1
% of intact radioconjugate after incubation in HS ([2]; after 0.5 h): ~100%
% of intact radioconjugate after incubation in HS ([2]; after 1 h): ~100%
% of intact radioconjugate after incubation in HS ([2]; after 4 h): ~100%
Stability in HS (in words) ([2]; for 68Ga period of four half-lives): completely stable
Radioconjugate Uptake (S. aureus ATCC 25,923; binding time 30 min): 0.89 ± 0.11%
Radioconjugate Uptake (S. aureus ATCC 25,923; binding time 60 min): 1.1 ± 0.15%
Radioconjugate Uptake ([3]; binding time 30 min): 0.82 ± 0.16%
Radioconjugate Uptake ([3]; binding time 60 min): 1.29 ± 0.27%
Charge of the molecule by electrophoresis [4]: Negative charge
% of intact radioconjugate after incubation in CYS ([5]; 10 mM CYS in PBS pH 7.4, 37 °C, after 4 h): ~100%
Stability in CYS challenging solution (in words) [5, 7]: completely stable
% of intact radioconjugate after incubation in HIS ([6]; 10 mM HIS in PBS pH 7.4, 37 °C, after 4 h): ~100%
Stability in HIS challenging solution (in words) [6, 7]: completely stable
SMILES: O=C(O)C[N+]12CC[N+]34CC[N+]5(CC(=O)N6CCN(c7cc8c(cc7F)c(=O)c(C(=O)O)cn8C7CC7)CC6)CC[N+]6(CC1)CC(=O)[O][68Ga-3]2365[O]C(=O)C4 (centres unmarked) [[^68Ga]Ga-DOTA-CIP]
